This is an account of results in ChEMBL document CHEMBL1649218, “New treatment option for second-stage African sleeping sickness: in vitro and in vivo efficacy of aza analogs of DB289” (Antimicrob Agents Chemother, 2009).

In data set [1] the test system is Trypanosoma brucei rhodesiense. Put plainly: Antitrypanosomal activity against wild-type Trypanosoma brucei rhodesiense STIB900 infected in NMRI mouse assessed as survival of mouse at 5 mg/kg, po for 4 days. The format is functional.
Data set [2] relates to Trypanosoma brucei brucei. The data set can be described thus: Antitrypanosomal activity against Trypanosoma brucei brucei GVR35 infected in NMRI mouse CNS model assessed as cure from infection at 25 mg/kg, po for 5 days. Type of data set: functional, organism-based. The arrangement: dose 25 mg/kg.
For data set [3], the system named is Trypanosoma brucei brucei. Put plainly: Antitrypanosomal activity against Trypanosoma brucei brucei GVR35 infected in NMRI mouse CNS model assessed as survival of mouse at 25 mg/kg, po for 5 days. Type of data set: functional.
Data set [4] deals with Trypanosoma brucei rhodesiense. The data set can be described thus: Antitrypanosomal activity against wild-type Trypanosoma brucei rhodesiense STIB900 infected in NMRI mouse assessed as cure from infection at 50 mg/kg, po for 4 days. Type of data set: functional, organism-based. On the set-up: dose 50 mg/kg.
Data set [5] has as its system Trypanosoma brucei brucei. Put plainly: Antitrypanosomal activity against Trypanosoma brucei brucei GVR35 infected in NMRI mouse CNS model assessed as survival of mouse at 25 mg/kg, po for 10 days. Type of data set: functional.
Data set [6] deals with Trypanosoma brucei brucei. Put plainly: Antitrypanosomal activity against Trypanosoma brucei brucei GVR35 infected in NMRI mouse CNS model assessed as survival of mouse at 100 mg/kg, po for 10 days. Type of data set: functional.
Data set [7] has as its system Trypanosoma brucei brucei. Put plainly: Antitrypanosomal activity against Trypanosoma brucei brucei GVR35 infected in NMRI mouse CNS model assessed as survival of mouse at 50mg/kg, po for 10 days. Type of data set: functional.
The subject of data set [8] is Trypanosoma brucei brucei. Put plainly: Antitrypanosomal activity against Trypanosoma brucei brucei GVR35 infected in NMRI mouse CNS model assessed as cure from infection at 100 mg/kg, po for 10 days. Type of data set: functional, organism-based. On the set-up: dose 100 mg/kg.
Data set [9] deals with Trypanosoma brucei brucei. The data set can be described thus: Antitrypanosomal activity against Trypanosoma brucei brucei GVR35 infected in NMRI mouse CNS model assessed as cure from infection at 100 mg/kg, po for 5 days. On the set-up: dose 100 mg/kg. The format is functional, organism-based.
Data set [10] deals with Trypanosoma brucei rhodesiense. Put plainly: Antitrypanosomal activity against wild-type Trypanosoma brucei rhodesiense STIB900 infected in NMRI mouse assessed as survival of mouse at 50 mg/kg, po for 4 days. The format is functional.
For data set [11], the system named is Trypanosoma brucei rhodesiense. The data set can be described thus: Antitrypanosomal activity against wild-type Trypanosoma brucei rhodesiense STIB900 infected in NMRI mouse assessed as survival of mouse at 25 mg/kg, po for 4 days. The format is functional.
Data set [12] has as its system Trypanosoma brucei brucei. Put plainly: Antitrypanosomal activity against Trypanosoma brucei brucei GVR35 infected in NMRI mouse CNS model assessed as survival of mouse at 10 mg/kg, po for 10 days. The format is functional.
Data set [13] relates to Trypanosoma brucei brucei. Put plainly: Antitrypanosomal activity against Trypanosoma brucei brucei GVR35 infected in NMRI mouse CNS model assessed as cure from infection at 10 mg/kg, po for 10 days. The format is functional, organism-based. On the set-up: dose 10 mg/kg.
For data set [14], the system named is Trypanosoma brucei brucei. Put plainly: Antitrypanosomal activity against Trypanosoma brucei brucei GVR35 infected in NMRI mouse CNS model assessed as survival of mouse at 100 mg/kg, po for 5 days. The format is functional.
The subject of data set [15] is Trypanosoma brucei rhodesiense. Put plainly: Antitrypanosomal activity against wild-type Trypanosoma brucei rhodesiense STIB900 infected in NMRI mouse assessed as survival of mouse at 2.5 mg/kg, po for 4 days. Type of data set: functional.
The test system of data set [16] is Trypanosoma brucei rhodesiense. Put plainly: Antitrypanosomal activity against wild-type Trypanosoma brucei rhodesiense STIB900 infected in NMRI mouse assessed as cure from infection at 25 mg/kg, po for 4 days. The format is functional, organism-based. The arrangement: dose 25 mg/kg.
Data set [17] deals with Trypanosoma brucei rhodesiense. Put plainly: Antitrypanosomal activity against wild-type Trypanosoma brucei rhodesiense STIB900 infected in NMRI mouse assessed as cure from infection at 2.5 mg/kg, po for 4 days. The format is functional, organism-based. The arrangement: dose 2.5 mg/kg.
Data set [18] has as its system Trypanosoma brucei brucei. Put plainly: Antitrypanosomal activity against Trypanosoma brucei brucei GVR35 infected in NMRI mouse CNS model assessed as survival of mouse at 75 mg/kg, po for 5 days. The format is functional.
For data set [19], the system named is Trypanosoma brucei brucei. Put plainly: Antitrypanosomal activity against Trypanosoma brucei brucei GVR35 infected in NMRI mouse CNS model assessed as survival of mouse at 50 mg/kg, po for 5 days. Type of data set: functional.
Data set [20] deals with Trypanosoma brucei rhodesiense. Put plainly: Antitrypanosomal activity against wild-type Trypanosoma brucei rhodesiense STIB900 infected in NMRI mouse assessed as cure from infection at 15 mg/kg, po for 4 days. On the set-up: dose 15 mg/kg. Type of data set: functional, organism-based.
Data set [21] has as its system Trypanosoma brucei rhodesiense. The data set can be described thus: Antitrypanosomal activity against wild-type Trypanosoma brucei rhodesiense STIB900 infected in NMRI mouse assessed as survival of mouse at 15 mg/kg, po for 4 days. The format is functional.
Data set [22] has as its system Trypanosoma brucei rhodesiense. Put plainly: Antitrypanosomal activity against wild-type Trypanosoma brucei rhodesiense STIB900 infected in NMRI mouse assessed as survival of mouse at 75 mg/kg, po for 4 days. The format is functional.
For data set [23], the system named is Trypanosoma brucei rhodesiense. The data set can be described thus: Antitrypanosomal activity against wild-type Trypanosoma brucei rhodesiense STIB900 infected in NMRI mouse assessed as cure from infection at 75 mg/kg, po for 4 days. The arrangement: dose 75 mg/kg. Type of data set: functional, organism-based.
Data set [24] concerns Trypanosoma brucei gambiense. Put plainly: Ratio of IC50 for Trypanosoma brucei gambiense K03048 to IC50 for Trypanosoma brucei gambiense STIB930. The format is functional.
The subject of data set [25] is Trypanosoma brucei brucei. The data set can be described thus: Antitrypanosomal activity against Trypanosoma brucei brucei GVR35 infected in NMRI mouse CNS model assessed as survival of mouse at 20 mg/kg, ip for 5 days. Type of data set: functional. Particulars: route intraperitoneal.
Data set [26] deals with Trypanosoma brucei brucei. The data set can be described thus: Antitrypanosomal activity against Trypanosoma brucei brucei GVR35 infected in NMRI mouse CNS model assessed as cure from infection at 20 mg/kg, ip for 5 days. The format is functional, organism-based. The arrangement: dose 20 mg/kg.
The test system of data set [27] is Trypanosoma brucei rhodesiense. Put plainly: Antitrypanosomal activity against wild-type Trypanosoma brucei rhodesiense STIB900 infected in NMRI mouse assessed as survival of mouse at 20 mg/kg, ip for 4 days. The format is functional. Particulars: route intraperitoneal.
For data set [28], the system named is Trypanosoma brucei brucei. Put plainly: Antitrypanosomal activity against Trypanosoma brucei brucei AT1KO by Alamar blue assay. The format is functional, organism-based.
Data set [29] deals with Trypanosoma brucei rhodesiense. The data set can be described thus: Antitrypanosomal activity against melasoprol-resistant Trypanosoma brucei rhodesiense STIB900 by Alamar blue assay. Type of data set: functional, organism-based. For orientation: Alamar Blue is a resazurin reagent that responds to reducing activity.
The subject of data set [30] is Trypanosoma brucei rhodesiense. The data set can be described thus: Antitrypanosomal activity against wild-type Trypanosoma brucei rhodesiense STIB900 infected in NMRI mouse assessed as survival of mouse at 5 mg/kg, ip for 4 days. Particulars: route intraperitoneal. Type of data set: functional.
In data set [31] the test system is Trypanosoma brucei brucei. Put plainly: Antitrypanosomal activity against Trypanosoma brucei brucei BS221 by Alamar blue assay. The format is functional, organism-based.
Data set [32] has as its system Trypanosoma brucei gambiense. The data set can be described thus: Antitrypanosomal activity against Trypanosoma brucei gambiense STIB930 by Alamar blue assay. The format is functional, organism-based.
Data set [33] has as its system Trypanosoma brucei rhodesiense. Put plainly: Ratio of IC50 for melasoprol-resistant Trypanosoma brucei rhodesiense STIB900 to IC50 for wild-type Trypanosoma brucei rhodesiense […]. The format is functional.
The subject of data set [34] is Trypanosoma brucei rhodesiense. The data set can be described thus: Antitrypanosomal activity against wild-type Trypanosoma brucei rhodesiense STIB900 by Alamar blue assay. Type of data set: functional, organism-based.
Data set [35] relates to Trypanosoma brucei brucei. The data set can be described thus: Antitrypanosomal activity against Trypanosoma brucei brucei GVR35 infected in NMRI mouse CNS model assessed as survival of mouse at 10 mg/kg, ip for 10 days. The format is functional. The note with it: route intraperitoneal.
Data set [36] in a line: Ratio of IC50 for Trypanosoma brucei gambiense ITMAP141267 to IC50 for wild-type Trypanosoma brucei rhodesiense […]. The format is functional.
Data set [37] relates to Trypanosoma brucei gambiense. The data set can be described thus: Antitrypanosomal activity against Trypanosoma brucei gambiense ITMAP141267 by Alamar blue assay. The format is functional, organism-based.
The subject of data set [38] is Trypanosoma brucei brucei. The data set can be described thus: Ratio of IC50 for Trypanosoma brucei brucei AT1KO to IC50 for Trypanosoma brucei brucei BS221. Type of data set: functional.
Data set [39] is described as follows: Ratio of IC50 for Trypanosoma brucei gambiense K03048 to IC50 for wild-type Trypanosoma brucei rhodesiense STIB900. The format is functional.
The test system of data set [40] is Trypanosoma brucei gambiense. The data set can be described thus: Antitrypanosomal activity against Trypanosoma brucei gambiense K03048 by Alamar blue assay. Type of data set: functional, organism-based.
In a further data set the test system is Mus musculus. Put plainly: Toxicity in NMRI mouse CNS model at 25 mg/kg, ip for 10 days. Type of data set: organism-based. On the set-up: dose 25 mg/kg, route intraperitoneal. The note with it: in vivo, 240 h.
The test system of data set [41] is Trypanosoma brucei rhodesiense. Put plainly: Ratio of IC50 for pentamidine-resistant Trypanosoma brucei rhodesiense STIB900 to IC50 for wild-type Trypanosoma brucei rhodesiense STIB900. Type of data set: functional.
The nature of data set [42]: Ratio of IC50 for Trypanosoma brucei gambiense STIB930 to IC50 for wild-type Trypanosoma brucei rhodesiense […]. Type of data set: functional.
In data set [43] the test system is Trypanosoma brucei rhodesiense. Put plainly: Antitrypanosomal activity against pentamidine-resistant Trypanosoma brucei rhodesiense STIB900 by Alamar blue assay. The format is functional, organism-based.

As usually defined, the IC50 is the concentration at which inhibition is half-maximal.

SMILES strings stand for the structures. In brackets after ≈: the same amount, converted by molar mass. Activity calls are given as the source filed them. No cut-off for these calls is given here. Where only a bound is given, the exact number is not on record here.

Take `CO/N=C(\N)c1ccc(-c2ccc(-c3ccc(/C(N)=N/OC)cn3)o2)nc1`: the MSD in [1] is above 40.25 days; in [3], above 95.8 days; in data set [5], above 132.4 days; in data set [6] it was above 180 days; in data set [7] it was above 153.4 days; in [10], above 60 days. The MSD in data set [11] was above 42 days; in data set [12], 70 days; in [14], above 180 days. In addition, the result in [2] and in data set [13] was inactive. Besides, the result in data set [4], in [8] and in data set [9] was Active.
With `CO/N=C(\N)c1ccc(-c2ccc(-c3ccc(/C(N)=N/OC)cn3)o2)cc1`, the MSD in data set [1] is above 50.25 days; in data set [15], 19.5 days; in data set [3], 117.6 days; in data set [5], above 149.6 days; in data set [7] it was above 180 days; in [11] it was above 60 days. Besides, the MSD in [18] is above 172 days; in data set [12], 75.25 days; in data set [14], above 180 days; in data set [19], above 176.6 days. Further, the result in data set [9] and in data set [16] was Active. The outcome in data set [17] and in [13] was inactive.
Turning to `CO/N=C(/N)c1ccc(-c2ccc(-c3ccc(/C(N)=N/O)cc3)o2)cc1`, the MSD in data set [10] is above 56 days; in [21], 30.25 days. Also, the result in data set [20] was inactive.
Regarding `N/C(=N\O)c1ccc(-c2ccc(-c3ccc(/C(N)=N\O)cn3)o2)nc1`, the MSD in data set [22] turned out to be 18 days. The result in data set [23] was inactive.
Turning to `N=C(N)c1ccc(-c2ccc(-c3ccc(C(=N)N)cc3)o2)cc1` [FURAMIDINE], the “Ratio IC50” value in data set [24] amounted to 14; in data set [33], 19.5; in data set [36], 3.2; in data set [38], 13.1; in [39] it was 4.3; in data set [41], 14.7. For the same molecule, in data set [42], the Ratio IC50 was 5.3. The MSD in data set [25] was above 132.3 days; in [27], above 57.75 days; in [30] it was above 46 days; in data set [35], above 112 days. For the same molecule, in data set [26], the result was inactive. Moreover, the IC50 in [28] was determined as 15.8 ng/mL (≈ 0.0519 µM); in [29], 19 ng/mL (≈ 0.0624 µM); in data set [31] it was 1.2 ng/mL (≈ 0.00394 µM); in data set [32], 5.1 ng/mL (≈ 0.0168 µM); in [34], 1 ng/mL (≈ 0.00329 µM); in [37], 3.1 ng/mL (≈ 0.0102 µM). Also, the IC50 was found to be 4.2 ng/mL (≈ 0.0138 µM) in data set [40] and 14.3 ng/mL (≈ 0.047 µM) in [43]. Besides, in the data set on Mus musculus, the Activity result was “Toxic”.
